# Results from PubChem BioAssay (NCI).
#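 GI50: concentration for 50% inhibition of growth. At the TGI there is no net growth.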
# Legend:
# Assay in all cases: DTP human tumour cell line panel, 384-well format
# OVCAR-5 ovarian = test system: OVCAR-5 ovarian
# NCI-H322M lung = test system: NCI-H322M lung
# SR leukemia = test system: SR leukemia
# SNB-75 CNS = test system: SNB-75 CNS
# SF-295 CNS = test system: SF-295 CNS
# MALME-3M melanoma = test system: MALME-3M melanoma
# CAKI-1 renal = test system: CAKI-1 renal
# HS 578T breast = test system: HS 578T breast
# HT29 colon = test system: HT29 colon
# EKVX NSCLC = test system: EKVX NSCLC
# SK-MEL-5 melanoma = test system: SK-MEL-5 melanoma
# RXF 393 renal = test system: RXF 393 renal
# OVCAR-3 ovarian = test system: OVCAR-3 ovarian
# NCI-H460 NSCLC = test system: NCI-H460 NSCLC
# CCRF-CEM leukemia = test system: CCRF-CEM leukemia
# MDA-MB-231 breast = test system: MDA-MB-231 breast
# RPMI-8226 leukemia = test system: RPMI-8226 leukemia
# KM12 colon = test system: KM12 colon
# HCT-15 colon = test system: HCT-15 colon
# T-47D breast = test system: T-47D breast
# SF-539 CNS = test system: SF-539 CNS
# PC-3 prostate = test system: PC-3 prostate
# HCC-2998 colon = test system: HCC-2998 colon
# MDA-MB-435 melanoma = test system: MDA-MB-435 melanoma
# U251 glioblastoma = test system: U251 glioblastoma
# K-562 leukemia = test system: K-562 leukemia
# SF-268 CNS = test system: SF-268 CNS
# MDA-MB-468 breast = test system: MDA-MB-468 breast
# BT-549 breast = test system: BT-549 breast
# M14 melanoma = test system: M14 melanoma
# NCI/ADR-RES ovarian = test system: NCI/ADR-RES ovarian
# NCI-H522 lung = test system: NCI-H522 lung
# A549 NSCLC = test system: A549 NSCLC
# SK-OV-3 ovarian = test system: SK-OV-3 ovarian
# LOX IMVI melanoma = test system: LOX IMVI melanoma
# IGROV1 ovarian = test system: IGROV1 ovarian
# HL-60(TB) leukemia = test system: HL-60(TB) leukemia
# SW-620 colon = test system: SW-620 colon
# NCI-H226 lung = test system: NCI-H226 lung
# 786-0 renal = test system: 786-0 renal
# MOLT-4 leukemia = test system: MOLT-4 leukemia
# UO-31 renal = test system: UO-31 renal
# OVCAR-4 ovarian = test system: OVCAR-4 ovarian
# UACC-62 melanoma = test system: UACC-62 melanoma
# COLO 205 colon = test system: COLO 205 colon
# SK-MEL-28 melanoma = test system: SK-MEL-28 melanoma
# HOP-92 NSCLC = test system: HOP-92 NSCLC
# SN12C renal = test system: SN12C renal
# UACC-257 melanoma = test system: UACC-257 melanoma
# SNB-19 CNS = test system: SNB-19 CNS
# NCI-H23 lung = test system: NCI-H23 lung
# HOP-62 NSCLC = test system: HOP-62 NSCLC
structure (smiles),measurement,setting,value
CN1C/C=C/CCOc2cccc(c2)-c2ccnc(n2)Nc2cccc(c2)C1,GI50,OVCAR-5 ovarian,29.4 nM
same,TGI,OVCAR-5 ovarian,7380 nM
same,GI50,NCI-H322M lung,30.1 nM
same,TGI,NCI-H322M lung,90.6 nM
same,TGI,SR leukemia,14.9 nM
same,GI50,SNB-75 CNS,26 nM
same,TGI,SNB-75 CNS,65.9 nM
same,GI50,SF-295 CNS,34 nM
same,TGI,SF-295 CNS,504 nM
same,GI50,MALME-3M melanoma,33.5 nM
same,TGI,MALME-3M melanoma,88.3 nM
same,GI50,CAKI-1 renal,30.1 nM
same,TGI,CAKI-1 renal,1140 nM
same,GI50,HS 578T breast,18.7 nM
same,TGI,HS 578T breast,43.3 nM
same,GI50,HT29 colon,36.5 nM
same,TGI,HT29 colon,203 nM
same,GI50,EKVX NSCLC,50.2 nM
same,TGI,EKVX NSCLC,192 nM
same,GI50,SK-MEL-5 melanoma,22 nM
same,TGI,SK-MEL-5 melanoma,53.6 nM
same,GI50,RXF 393 renal,19.2 nM
same,TGI,RXF 393 renal,35.4 nM
same,GI50,OVCAR-3 ovarian,22.9 nM
same,TGI,OVCAR-3 ovarian,60.3 nM
same,GI50,NCI-H460 NSCLC,19.9 nM
same,TGI,NCI-H460 NSCLC,41.9 nM
same,GI50,CCRF-CEM leukemia,18.7 nM
same,TGI,CCRF-CEM leukemia,35.5 nM
same,GI50,MDA-MB-231 breast,51.5 nM
same,TGI,MDA-MB-231 breast,296 nM
same,GI50,RPMI-8226 leukemia,23.7 nM
same,TGI,RPMI-8226 leukemia,50.6 nM
same,GI50,KM12 colon,26 nM
same,TGI,KM12 colon,74.7 nM
same,GI50,HCT-15 colon,30.1 nM
same,TGI,HCT-15 colon,119 nM
same,GI50,T-47D breast,41.6 nM
same,TGI,T-47D breast,1200 nM
same,GI50,SF-539 CNS,25.2 nM
same,TGI,SF-539 CNS,62.6 nM
same,GI50,PC-3 prostate,31.1 nM
same,TGI,PC-3 prostate,94.9 nM
same,GI50,HCC-2998 colon,32.5 nM
same,TGI,HCC-2998 colon,219 nM
same,GI50,MDA-MB-435 melanoma,29.2 nM
same,TGI,MDA-MB-435 melanoma,88.9 nM
same,GI50,U251 glioblastoma,34 nM
same,TGI,U251 glioblastoma,520 nM
same,GI50,K-562 leukemia,71 nM
same,TGI,K-562 leukemia,307 nM
same,GI50,SF-268 CNS,22.9 nM
same,TGI,SF-268 CNS,67.8 nM
same,GI50,MDA-MB-468 breast,42.7 nM
same,TGI,MDA-MB-468 breast,147 nM
same,GI50,BT-549 breast,23.5 nM
same,TGI,BT-549 breast,50.2 nM
same,GI50,M14 melanoma,37.7 nM
same,TGI,M14 melanoma,118 nM
same,GI50,NCI/ADR-RES ovarian,34.2 nM
same,TGI,NCI/ADR-RES ovarian,124 nM
same,GI50,NCI-H522 lung,59.8 nM
same,TGI,NCI-H522 lung,227 nM
same,GI50,A549 NSCLC,35.2 nM
same,TGI,A549 NSCLC,1090 nM
same,GI50,SK-OV-3 ovarian,65.3 nM
same,TGI,SK-OV-3 ovarian,1140 nM
same,GI50,LOX IMVI melanoma,18.5 nM
same,TGI,LOX IMVI melanoma,35.7 nM
same,TGI,IGROV1 ovarian,128 nM
same,GI50,HL-60(TB) leukemia,16 nM
same,TGI,HL-60(TB) leukemia,29.8 nM
same,GI50,SW-620 colon,38.1 nM
same,TGI,SW-620 colon,279 nM
same,GI50,NCI-H226 lung,26.9 nM
same,TGI,NCI-H226 lung,86 nM
same,GI50,786-0 renal,37 nM
same,TGI,786-0 renal,224 nM
same,GI50,MOLT-4 leukemia,19.8 nM
same,TGI,MOLT-4 leukemia,37.2 nM
same,GI50,UO-31 renal,20.6 nM
same,TGI,UO-31 renal,40.7 nM
same,TGI,OVCAR-4 ovarian,602 nM
same,GI50,UACC-62 melanoma,18.6 nM
same,TGI,UACC-62 melanoma,45.4 nM
same,GI50,COLO 205 colon,24.7 nM
same,TGI,COLO 205 colon,57.8 nM
same,GI50,SK-MEL-28 melanoma,25.7 nM
same,TGI,SK-MEL-28 melanoma,86.5 nM
same,GI50,HOP-92 NSCLC,44.3 nM
same,TGI,HOP-92 NSCLC,3560 nM
same,GI50,SN12C renal,27.6 nM
same,TGI,SN12C renal,90.3 nM
same,GI50,UACC-257 melanoma,58.2 nM
same,TGI,UACC-257 melanoma,208 nM
same,GI50,SNB-19 CNS,41.1 nM
same,TGI,SNB-19 CNS,1600 nM
same,TGI,NCI-H23 lung,106 nM
same,GI50,HOP-62 NSCLC,21.6 nM
same,TGI,HOP-62 NSCLC,49.4 nM
